Reference: patent US12077503B2, “Substituted cyclic amides and their use as herbicides” (FMC CORPORATION, priority 2015, dated 2024)

Key:
Format in all cases: in vivo
Kochia (Kochia scoparia) [1] = test: Test A preemergence; conditions: preemergence
How it was run: (§1)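 Treatment is preemergence as a directed soil spray after planting, or postemergence at the one- to two-leaf stage, with test chemical in a non-phytotoxic solvent mixture plus surfactant. Plants stay in the greenhouse about 10 d before visual injury scoring on a 0 to 100 scale versus untreated controls.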

[2] = tested on: barnyardgrass (Echinochloa crus-galli); test: Test A preemergence; conditions: preemergence
How it was run: as §1

[3] = tested on: giant foxtail (Setaria faberii); test: Test A preemergence; conditions: preemergence
How it was run: as §1

[4] = tested on: pigweed (Amaranthus retroflexus); test: Test A preemergence; conditions: preemergence
[5] = tested on: ragweed (common ragweed, Ambrosia elatior); test: Test A preemergence; conditions: preemergence
How it was run: as §1

[6] = tested on: ryegrass, Italian (Italian ryegrass, Lolium multiflorum); test: Test A preemergence; conditions: preemergence
How it was run: as §1

[7] = tested on: Galium (catchweed bedstraw, Galium aparine); test: Test A postemergence; conditions: postemergence, 0 to 100 scale (0 no effect, 100 complete control)
How it was run: as §1

Kochia (Kochia scoparia) [8] = test: Test A postemergence; conditions: postemergence, 0 to 100 scale (0 no effect, 100 complete control)
How it was run: as §1

[9] = tested on: barnyardgrass (Echinochloa crus-galli); test: Test A postemergence; conditions: postemergence, 0 to 100 scale (0 no effect, 100 complete control)
How it was run: as §1

[10] = tested on: blackgrass (Alopecurus myosuroides); test: Test A postemergence; conditions: postemergence, 0 to 100 scale (0 no effect, 100 complete control)
How it was run: as §1

corn (Zea mays) = test: Test A postemergence; conditions: postemergence, 0 to 100 scale (0 no effect, 100 complete control)
How it was run: as §1

[11] = tested on: giant foxtail (Setaria faberii); test: Test A postemergence; conditions: postemergence, 0 to 100 scale (0 no effect, 100 complete control)
How it was run: as §1

[12] = tested on: pigweed (Amaranthus retroflexus); test: Test A postemergence; conditions: postemergence, 0 to 100 scale (0 no effect, 100 complete control)
How it was run: as §1

[13] = tested on: ragweed (common ragweed, Ambrosia elatior); test: Test A postemergence; conditions: postemergence, 0 to 100 scale (0 no effect, 100 complete control)
How it was run: as §1

[14] = tested on: ryegrass, Italian (Italian ryegrass, Lolium multiflorum); test: Test A postemergence; conditions: postemergence, 0 to 100 scale (0 no effect, 100 complete control)
How it was run: as §1

[15] = tested on: wheat (Triticum aestivum); test: Test A postemergence; conditions: postemergence, 0 to 100 scale (0 no effect, 100 complete control)
How it was run: as §1

[16] = tested on: barnyardgrass (Echinochloa crus-galli); test: Test B flooded paddy test; conditions: Flood, 500 g ai/ha; 0 to 100 scale where 0 is no effect and 100 is complete control; 13 to 15 d
How it was run: (§2)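 Response scored visually against untreated controls, 0 = no effect and 100 = complete control, 13–15 d after treatment in the greenhouse. Compounds added to paddy water held 3 cm above soil surface. Treatment given at 2-leaf stage.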

[17] = tested on: ducksalad (Heteranthera limosa); test: Test B flooded paddy test; conditions: Flood, 500 g ai/ha; 0 to 100 scale where 0 is no effect and 100 is complete control; 13 to 15 d
How it was run: as §2

rice (Oryra sativa) = test: Test B flooded paddy test; conditions: Flood, 500 g ai/ha; 0 to 100 scale where 0 is no effect and 100 is complete control; 13 to 15 d
How it was run: as §2

[18] = tested on: sedge, umbrella (small-flower umbrella sedge, Cyperus difformis); test: Test B flooded paddy test; conditions: Flood, 500 g ai/ha; 0 to 100 scale where 0 is no effect and 100 is complete control; 13 to 15 d
How it was run: as §2

[19] = 125 g ai/ha, visual rating after approx. 10 d, 0 to 100 scale where 0 is no effect and 100 is complete control
[20] = 500 g ai/ha, 0 to 100 scale, 0 = no effect, 100 = complete control
[21] = 125 g ai/ha, visual injury after approximately 10 d
[22] = 500 g ai/ha, visual injury, approx. 10 d

O=C1NCC(c2cccc(OC(F)(F)C(F)F)c2)C1C(=O)Nc1ccc(F)cc1F (racemic) [Compound 696]
80: Plant response rating, Barnyardgrass [2, 19] | Plant response rating, Barnyardgrass [9, 21] | Plant response rating, Barnyardgrass [9, 22] | Plant response rating, Foxtail, Giant [11, 21] | Plant response rating, Foxtail, Giant [11, 22]
35: Plant response rating, Rice (rice (Oryra sativa))
60: Plant response rating, Kochia (Kochia (Kochia scoparia) [1]; [20]) | Plant response rating, Ryegrass, Italian [6, 20] | Plant response rating, Pigweed [12, 22]
50: Plant response rating, Galium [7, 21] | Plant response rating, Wheat [15, 22]
90: Plant response rating, Barnyardgrass [2, 20] | Plant response rating, Foxtail, Giant [3, 19] | Plant response rating, Foxtail, Giant [3, 20] | Plant response rating, Ducksalad [17]
40: Plant response rating, Kochia (Kochia (Kochia scoparia) [1]; [19]) | Plant response rating, Ragweed [5, 20] | Plant response rating, Kochia (Kochia (Kochia scoparia) [8]; [22]) | Plant response rating, Blackgrass [10, 22] | Plant response rating, Corn (corn (Zea mays); [21]) | Plant response rating, Ragweed [13, 22] | Plant response rating, Ryegrass, Italian [14, 22]
75: Plant response rating, Barnyardgrass [16]
30: Plant response rating, Pigweed [4, 20] | Plant response rating, Ryegrass, Italian [6, 19] | Plant response rating, Kochia (Kochia (Kochia scoparia) [8]; [21]) | Plant response rating, Blackgrass [10, 21] | Plant response rating, Pigweed [12, 21] | Plant response rating, Ryegrass, Italian [14, 21] | Plant response rating, Wheat [15, 21]
70: Plant response rating, Galium [7, 22] | Plant response rating, Corn (corn (Zea mays); [22])
20: Plant response rating, Pigweed [4, 19] | Plant response rating, Ragweed [13, 21]
0: Plant response rating, Ragweed [5, 19] | Plant response rating, Sedge, Umbrella [18]

O=C1NCC(c2ccc(I)cc2)C1C(=O)Nc1ccccc1F (racemic) [Compound 702]
90: Plant response rating, Barnyardgrass [2, 20] | Plant response rating, Foxtail, Giant [3, 19] | Plant response rating, Foxtail, Giant [3, 20]
70: Plant response rating, Barnyardgrass [2, 19] | Plant response rating, Barnyardgrass [9, 21] | Plant response rating, Barnyardgrass [9, 22]
40: Plant response rating, Galium [7, 22]
20: Plant response rating, Kochia (Kochia (Kochia scoparia) [1]; [19]) | Plant response rating, Kochia (Kochia (Kochia scoparia) [1]; [20]) | Plant response rating, Rice (rice (Oryra sativa))
30: Plant response rating, Pigweed [4, 20] | Plant response rating, Foxtail, Giant [11, 21]
80: Plant response rating, Foxtail, Giant [11, 22]
0: Plant response rating, Pigweed [4, 19] | Plant response rating, Ragweed [5, 19] | Plant response rating, Ragweed [5, 20] | Plant response rating, Ryegrass, Italian [6, 19] | Plant response rating, Ryegrass, Italian [6, 20] | Plant response rating, Galium [7, 21] | Plant response rating, Kochia (Kochia (Kochia scoparia) [8]; [21]) | Plant response rating, Kochia (Kochia (Kochia scoparia) [8]; [22]) | Plant response rating, Blackgrass [10, 21] | Plant response rating, Blackgrass [10, 22] | Plant response rating, Corn (corn (Zea mays); [21]) | Plant response rating, Corn (corn (Zea mays); [22]) | Plant response rating, Pigweed [12, 21] | Plant response rating, Pigweed [12, 22] | Plant response rating, Ragweed [13, 21] | Plant response rating, Ragweed [13, 22] | Plant response rating, Ryegrass, Italian [14, 21] | Plant response rating, Ryegrass, Italian [14, 22] | Plant response rating, Wheat [15, 21] | Plant response rating, Wheat [15, 22] | Plant response rating, Sedge, Umbrella [18]
50: Plant response rating, Barnyardgrass [16]
100: Plant response rating, Ducksalad [17]
